Laboratory results from ChEMBL document CHEMBL5260858, “Targeting mycobacterial membranes and membrane proteins: Progress and limitations” (Bioorg Med Chem, 2023).
≈ marks a conversion by molar mass, not a printed value.

Tests used:
[1] = test system: Mycobacterium tuberculosis; test: Antimycobacterial activity against Mycobacterium tuberculosis CIP103471 infected in human U-937 cells assessed as bacterial growth inhibition incubated for 7 days; format: functional; details: CIP103471, 168 h, time 7 day
[2] = test system: Mycobacterium tuberculosis; test: Antitubercular activity against Mycobacterium tuberculosis CDC1551 assessed as bacterial growth inhibition for 6 days by spectroscopic analysis; format: functional, organism-based; details: CDC1551, 144 h
[3] = test system: Mycobacterium tuberculosis; test: Antitubercular activity against Mycobacterium tuberculosis CDC1551 infected in mouse bone marrow derived macrophage assessed as bacterial growth inhibition for 2 days by spectroscopic analysis; format: functional; details: CDC1551, 48 h, time 2 day
[4] = test system: Mycobacteroides abscessus; test: Antitubercular activity against Mycobacterium abscessus CIP104536 assessed as bacterial growth inhibition incubated 3 to 5 days by resazurin based broth microdilution method; format: functional; details: time 3-5 day
[5] = target: T1, Decaprenylphosphoryl-beta-D-ribose oxidase (Mycobacterium tuberculosis (strain ATCC 25618 / H37Rv), UniProt P9WJF1); test: Inhibition of Mycobacterium tuberculosis H37Rv DprE1 assessed as formation of resorufin using farnesyl-phosphoryl-beta-D-ribofuranose by AmplexRed reagent based fluorescence assay
T1 sequence (P9WJF1 whole entry): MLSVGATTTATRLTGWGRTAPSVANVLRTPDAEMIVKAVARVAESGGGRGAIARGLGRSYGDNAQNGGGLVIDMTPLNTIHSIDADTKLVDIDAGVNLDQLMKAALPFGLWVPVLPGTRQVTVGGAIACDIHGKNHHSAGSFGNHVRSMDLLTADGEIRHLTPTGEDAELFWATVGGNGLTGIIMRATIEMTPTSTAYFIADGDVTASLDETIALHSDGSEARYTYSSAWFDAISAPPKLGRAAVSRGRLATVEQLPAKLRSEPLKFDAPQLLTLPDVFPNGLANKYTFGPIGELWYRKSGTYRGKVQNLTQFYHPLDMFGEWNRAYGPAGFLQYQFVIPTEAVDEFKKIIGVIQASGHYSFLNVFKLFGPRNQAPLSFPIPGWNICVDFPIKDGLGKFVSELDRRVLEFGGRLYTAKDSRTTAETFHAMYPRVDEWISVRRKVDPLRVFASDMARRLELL

[6] = test system: Mycobacterium tuberculosis; test: Antimycobacterial activity against Mycobacterium tuberculosis H37Rv assessed as bacterial growth inhibition incubated for 1 week by resazurin reduction microplate assay; format: functional; details: 168 h, time 1 weeks
[7] = test system: Mycobacterium tuberculosis; test: Antitubercular activity against Mycobacterium tuberculosis H37Rv TMC102 assessed as bacterial growth inhibition; format: functional
[8] = test system: Mycobacterium tuberculosis; test: Antitubercular activity against Mycobacterium tuberculosis H37Rv infected in human monocyte macrophage assessed as bacterial growth inhibition and measured after 21 days by colony counting based analysis; format: functional; details: 504 h, time 21 day
[9] = test system: Mycobacterium tuberculosis; test: Antitubercular activity against Mycobacterium tuberculosis H37Rv assessed as bacterial growth inhibition incubated for 7 days by microplate alamar blue assay; format: functional; details: 168 h, time 7 day
[10] = test system: Mycobacterium tuberculosis; test: Antitubercular activity against Mycobacterium tuberculosis H37Rv assessed as bacterial growth inhibition by microdilution method; format: functional
[11] = test system: Mycobacterium tuberculosis; test: Antitubercular activity against Mycobacterium tuberculosis H37Rv assessed as bacterial growth inhibition incubated for 6 days by resazurin based fluorescence assay; format: functional; details: 144 h, time 6 day
[12] = test system: Mycobacterium tuberculosis; test: In vivo antimycobacterial activity against Mycobacterium tuberculosis H37Rv infected in mouse assessed as reduction in log10 CFU at 1 to 2 times MIC and measured after 10 days; format: functional; details: time 10 day
[13] = test system: Mycobacterium tuberculosis; test: Antimycobacterial activity against Mycobacterium tuberculosis H37Rv infected in THP-1 cells assessed as reduction in log10 CFU at MIC and measured after 2 to 7 days; format: functional; details: time 2-7 day
[14] = test system: Mycobacterium tuberculosis; test: Antitubercular activity against Mycobacterium tuberculosis H37Rv assessed as bacterial growth inhibition by REMA analysis; format: functional
[15] = test system: Mycobacterium tuberculosis; test: In vivo antimycobacterial activity against Mycobacterium tuberculosis H37Rv infected in BALB/c mouse assessed as reduction in bacterial load in spleen at 40 to 100 mg/kg, po and measured after 4 weeks; format: functional; details: dose 40-100 mg/kg
[16] = test system: Mycobacterium tuberculosis; test: Antitubercular activity against Mycobacterium tuberculosis assessed as bacterial growth inhibition in 7H9 medium incubated for 5 days by microplate reader analysis; format: functional; details: 120 h, time 5 day
[17] = test system: Mycobacterium tuberculosis; test: Antitubercular activity against Mycobacterium tuberculosis ATCC 27294 (H37Rv) assessed as bacterial growth inhibition by agar dilution method; format: functional
[18] = test system: Mycobacterium tuberculosis; test: In vivo antimycobacterial activity against Mycobacterium tuberculosis H37Rv infected in BALB/c mouse assessed as reduction in bacterial load in lungs at 40 to 100 mg/kg, po and measured after 4 weeks; format: functional; details: dose 40-100 mg/kg
[19] = test system: Mycobacterium tuberculosis; test: Antitubercular activity against Mycobacterium tuberculosis H37Rv assessed as bacterial growth inhibition incubated for 14 days by agar plate method; format: functional; details: 336 h, time 14 day
[20] = test system: Mycobacterium tuberculosis; test: Antitubercular activity against Mycobacterium tuberculosis H37Rv ATCC 27294 assessed as bacterial growth inhibition by resazurin microtiter assay; format: functional
[21] = test system: Mycobacterium tuberculosis; test: Antitubercular activity against Mycobacterium tuberculosis H37Rv ATCC 27294 infected in mouse J774 cells assessed as intracellular bacterial growth inhibition incubated for by resazurin microtiter assay; format: functional
[22] = test system: Mycobacterium tuberculosis; test: Antitubercular activity against Mycobacterium tuberculosis H37Rv expressing GFP assessed as bacterial growth inhibition by measuring GFP fluorescence incubated for 72 hrs by fluorescence analysis; format: functional
[23] = test system: Mycobacterium tuberculosis; test: Antitubercular activity against Mycobacterium tuberculosis mc2 7000 assessed as bacterial growth inhibition incubated for 6 days by resazurin based fluorescence assay; format: functional; details: mc2 7000, 144 h, time 6 day

Cc1c(CN2CCN(C)CC2)cc(-c2ccc(Cl)cc2)n1-c1ccc(Cl)cc1
MIC [1]: 1 µg/mL (≈ 2.41 µM)

O=C(NCCc1ccc(Cl)cc1)C1(c2cccs2)CCOCC1
EC50 [2]: 6.4 µM | MIC99 [3]: 19.3 µM (≈ 6.75 µg/mL)

OC1(c2ccc(Cl)c(C(F)(F)F)c2)CCN(Cc2ccccc2I)CC1
MIC99 [4]: 0.125 µg/mL (≈ 0.252 µM)

C[C@H]1COC2(CCN(c3nc(=O)c4cc(C(F)(F)F)cc(-n5cccc5)c4s3)CC2)O1
IC50 [5]: < 8 µM | MIC [6]: 0.35 µM (≈ 0.158 µg/mL)

O=C(Nc1ccc(F)c(F)c1F)NC12CC3CC(CC(C3)C1)C2
MIC [7]: 0.1 µg/mL (≈ 0.308 µM)

Cc1cc2nc(CCC3CCCCC3)[nH]c2cc1C
MIC99 [8]: 0.145 µM (≈ 0.0372 µg/mL)

Brc1ccc2[nH]c(CCC3CCCCC3)nc2c1
MIC99 [8]: 2.44 µM (≈ 0.75 µg/mL)

O=c1cc(-c2ccccc2O)oc2ccc(O)c(CN3CCC3)c12
MIC [9]: 0.45 µg/mL (≈ 1.39 µM)

COC(=O)c1c(NC(=O)c2c(F)c(F)c(F)c(F)c2F)sc(C(N)=O)c1C
MIC [10]: 0.5 µM

CCc1ccc([C@H]2C[C@@H](C(F)(F)F)n3ncc(C(=O)NCc4ccc(OC)cc4)c3N2)cc1
MIC [11]: 0.25 µM (≈ 0.115 µg/mL)

COc1ncnc(Cn2cnc3c(C(=O)NCCF)cccc32)c1C
Activity [12]: >3 log10CFU | Activity [13]: 1 log10CFU | MIC [14]: 1.56 µM (≈ 0.536 µg/mL)

CCOC(=O)NC(=O)c1ccsc1NC(=O)c1nc2ccccc2s1
Activity [15]: 3 log10CFU | MIC [16]: 0.19 µg/mL (≈ 0.506 µM) | MIC [17]: 0.19 µg/mL (≈ 0.506 µM) | Activity [18]: 2 log10CFU

Cc1cc2oc(=O)cc(-c3ccccc3)c2c(C)c1-c1ccc(CN2CCOCC2)cc1
MIC [19]: 0.42 µM (≈ 0.179 µg/mL)

O=c1cc(-c2ccc(O)cc2)oc2ccc(O)c(CN3CCC3)c12
MIC [9]: 0.45 µg/mL (≈ 1.39 µM)

CC1(C)CC(=O)C(=CNc2ccccc2O)C(=O)C1
MIC90 [20]: 7 µg/mL (≈ 27 µM) | MIC [21]: 8 µg/mL (≈ 30.9 µM)

CCCn1cnc2cc(NCc3ccc(Cl)cc3Cl)ccc21
IC90 [22]: 16 µM

c1cc2c(s1)CCOC21CCN(Cc2ccc3c(c2)OCCO3)CC1
MIC [11]: 0.38 µM (≈ 0.136 µg/mL)

CNC(=O)c1c(-c2ccccc2)oc2ccc(O)c(CN3CCCCC3)c12
MIC [23]: 0.2 µM (≈ 0.0729 µg/mL)
